We go through 6 compounds from patent US5243049A, “Certain pyrroloquinolinones: a new class of GABA brain receptor ligands” (Neurogen Corporation, priority 1992, dated 1993).

The test system of test [1] is benzodiazepine binding site / GABA receptor. The following applies: brain membranes; cited from earlier work.
Test [2] has as its target GABAa receptor. As to the kind of experiment: Inhibition of 3H-RO15-1788 [3H-Flumazenil] binding to rat cortical tissue (GABAa receptor activity). The following applies: 0.5 nM 3H-RO15-1788, 30 min at 4° C., pH 7.4. The procedure: The pharmaceutical utility of compounds of this invention are indicated by the following assay for GABAa receptor activity.
Assays are carried out as described in Thomas and Tallman (J. Bio. Chem. 156: 9838-9842, J. Neurosci. 3:433-440, 1983). Rat cortical tissue is dissected and homogenized in 25 volumes (w/v) of 0.05M Tris HCl buffer (pH 7.4 at 4° C.). The tissue homogenate is centrifuged in the cold (4° C.) at 20,000×g for 20 minutes. The supernatant is decanted and the pellet is rehomogenized in the same volume of buffer and again centrifuged at 20,000×g. The supernatant is decanted and the pellet is frozen at -20° C. overnight. The pellet is then thawed and rehomogenized in 25 volume (original wt/vol) of buffer and the procedure is carried out twice. The pellet is finally resuspended in 50 volumes (w/vol of 0.05M Tris HCl buffer (pH 7.4 at 4° C.).
Incubations contain […] of radioligand 0.5 nM (^3 H-RO15-1788 [^3 H-Flumazenil] specific activity 80 Ci/mmol), drug or blocker and buffer to a total volume of […]. Incubations are carried for 30 min at 4° C. then are rapidly filtered through GFB filters to separate free and bound ligand. Filters are washed twice with fresh 0.05M Tris HCl buffer (pH 7.4 at 4° C.) and counted in a liquid scintillation counter. […] diazepam is added to some tubes to determine nonspecific binding. Data are collected in triplicate determinations, averaged and % inhibition of total specific binding is calculated. Total Specific Binding=Total-Nonspecific. In some cases, the amounts of unlabeled drugs is varied and total displacement curves of binding are carried out. Data are converted to a form for the calculation of IC50 and Hill Coefficient (nH).

pIC50: −log10 of the molar value.

Turning to `CN1CCc2cc3c(cc2[C@H]1[C@@H]1OC(=O)c2c1ccc1c2OCO1)OCO3` [(+) bicuculline], the “Block of enhancement of benzodiazepine binding by GABA agonists” value in test [1] is “blocked”.
On to `CN1CCc2cc3c(cc2[C@@H]1[C@H]1OC(=O)c2c1ccc1c2OCO1)OCO3` [(-) bicuculline], for which the “Block of enhancement of benzodiazepine binding by GABA agonists” value in test [1] is “much less active”.
`O=C1c2c(c3ccccc3[nH]c2=O)C(=O)N1c1ccccc1` [Compound 1, 2'-Phenyl-pyrrolo[3,4-c]quinoline-1,3,4(5H)-trione]: the pIC50 (as a rule, the IC50 on a negative log10 scale, so that one unit is a factor of ten) in test [2] was 7.44.
The compound `COc1ccc(N2C(=O)c3c(c4ccccc4[nH]c3=O)C2=O)cc1` [Compound 2, 2-(4-Methoxyphenyl)-pyrrolo[3,4-c]quinoline-1,3,4(5H)-trione] showed a negative logarithm of the IC50 (pIC50) in test [2] of 6.40.
The compound `O=C1c2c(c3ccccc3[nH]c2=O)C(=O)N1c1ccccc1F` [Compound 4, 2-(2-Fluorophenyl)-pyrrolo[3,4-c]quinoline-1,3,4(5H)-trione] had a pIC50 in test [2] of 6.15.
`O=C1c2c(c3ccccc3[nH]c2=O)CN1c1ccccc1` [Compound 16, 2-Phenyl-pyrrolo[3,4-c]quinoline-3(1H),4(5H)-dione] showed a pIC50 in test [2] of 6.22.
